Reference: the NIST ThermoML archive (doi:10.1016/j.fluid.2013.10.038)

Experiment: excess molar enthalpy (molar enthalpy of mixing); xn = mol fraction of the nth substance listed
Details: Liquid, Flow calorimetry

CCOC(C)=O [ethyl acetate] + O=C=O
excess molar enthalpy [kcal/mol]
Details | 298.15 K | 303.15 K | 308.15 K
5000 kPa, x2 = 0.099 | -0.284 | -0.294 | -0.346
5000 kPa, x2 = 0.199 | -0.567 | -0.582 | -0.556
5000 kPa, x2 = 0.3 | -0.837 | -0.87 | -0.839
5000 kPa, x2 = 0.4 | -1.11 | -1.14 | -1.1
5000 kPa, x2 = 0.5 | -1.37 | – | –
6000 kPa, x2 = 0.101 | -0.251 | -0.275 | -0.274
6000 kPa, x2 = 0.2 | -0.512 | -0.535 | -0.543
6000 kPa, x2 = 0.3 | -0.757 | -0.793 | -0.791
6000 kPa, x2 = 0.399 | -0.984 | -1.04 | -1.05
6000 kPa, x2 = 0.5 | -1.21 | -1.27 | –
7000 kPa, x2 = 0.1 | -0.0915 | -0.216 | -0.238
7000 kPa, x2 = 0.2 | -0.167 | -0.432 | -0.473
7000 kPa, x2 = 0.299 | -0.239 | -0.647 | -0.709
7000 kPa, x2 = 0.4 | -0.304 | -0.849 | -0.928
7000 kPa, x2 = 0.5 | – | -1.02 | -1.13
